Data from PubChem BioAssay AID330 (DTP/NCI, 2004).
Inconclusive results and toxic doses are left out. How the source made its calls: active means survival T/C of 150% or more; inactive means T/C below 125% in these data.

System: P388 leukemia ip, CD2F1 mice, survival T/C
Assay: NCI In Vivo Anticancer Drug Screen. Data for tumor model P388 Leukemia (intraperitoneal) in CD2F1 (CDF1) mice
Conditions: endpoint: median survival time, higher = longer survival
Summary of the method: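 Mice carrying the transplanted tumor received test compound or vehicle. Survival was recorded in each group, and the value is the treated-group measurement divided by that of the vehicle-treated control group.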

[1] = dose: 50.0 mg/kg/injection, schedule: Q01DX009 (ip), vehicle: saline with Tween-80
[2] = dose: 100.0 mg/kg/injection, schedule: Q01DX009 (ip), vehicle: saline with Tween-80
[3] = dose: 200.0 mg/kg/injection, schedule: Q01DX009 (ip), vehicle: saline with Tween-80
[4] = dose: 60.0 mg/kg/injection, schedule: Q01DX005 (ip), vehicle: saline with Tween-80
[5] = dose: 120.0 mg/kg/injection, schedule: Q01DX005 (ip), vehicle: saline with Tween-80
[6] = dose: 100.0 mg/kg/injection, schedule: Q01DX009 (ip), vehicle: Klucel (hydroxypropylcellulose) (HPC)
[7] = dose: 200.0 mg/kg/injection, schedule: Q01DX009 (ip), vehicle: Klucel (hydroxypropylcellulose) (HPC)
[8] = dose: 100.0 mg/kg/injection, schedule: Q04DX003 (ip), vehicle: saline with Tween-80
[9] = dose: 200.0 mg/kg/injection, schedule: Q04DX003 (ip), vehicle: saline with Tween-80
[10] = dose: 400.0 mg/kg/injection, schedule: Q04DX003 (ip), vehicle: saline with Tween-80

Measured: T/C

C=C1CCC2C(OC(=O)C2(O)COC(C)=O)C2C(=C)C(OC(C)=O)CC12 (configuration not stated)
inactive: dose: 9.38 mg/kg/injection, schedule: Q01DX005 (ip), vehicle: Klucel (hydroxypropylcellulose) (HPC) 106 % of control | dose: 18.75 mg/kg/injection, schedule: Q01DX005 (ip), vehicle: Klucel (hydroxypropylcellulose) (HPC) 100 % of control | dose: 37.5 mg/kg/injection, schedule: Q01DX005 (ip), vehicle: Klucel (hydroxypropylcellulose) (HPC) 98 % of control | dose: 75.0 mg/kg/injection, schedule: Q01DX005 (ip), vehicle: Klucel (hydroxypropylcellulose) (HPC) 100 % of control | dose: 150.0 mg/kg/injection, schedule: Q01DX005 (ip), vehicle: Klucel (hydroxypropylcellulose) (HPC) 99 % of control

CC1(CO)CSC(Nc2ccc(F)cc2)=N1 (configuration not stated)
inactive: [1] 104 % of control | [2] 98 % of control | [3] 104 % of control

COc1cc2c(cc1-c1coc3cc4occc4cc3c1=O)OCO2
inactive: dose: 8.75 mg/kg/injection, schedule: Q01DX005 (ip), vehicle: saline with Tween-80 87 % of control | dose: 35.0 mg/kg/injection, schedule: Q01DX005 (ip), vehicle: saline with Tween-80 87 % of control | dose: 70.0 mg/kg/injection, schedule: Q01DX005 (ip), vehicle: saline with Tween-80 89 % of control | dose: 140.0 mg/kg/injection, schedule: Q01DX005 (ip), vehicle: saline with Tween-80 99 % of control

Nc1ccc2ccc3ccc(N)nc3c2n1
inactive: [4] 103 % of control | [5] 91 % of control

O=[N+]([O-])C(CO)C(CO)[N+](=O)[O-] (configuration not stated)
inactive: [6] 110 % of control | dose: 100.0 mg/kg/injection, schedule: Q01DX009 (ip), vehicle: suspension in saline 103 % of control | [7] 108 % of control | dose: 200.0 mg/kg/injection, schedule: Q01DX009 (ip), vehicle: suspension in saline 100 % of control | dose: 400.0 mg/kg/injection, schedule: Q01DX009 (ip), vehicle: Klucel (hydroxypropylcellulose) (HPC) 111 % of control | dose: 400.0 mg/kg/injection, schedule: Q01DX009 (ip), vehicle: suspension in saline 109 % of control

COc1cc2c(cc1O)C(=O)CCC2
inactive: dose: 50.0 mg/kg/injection, schedule: Q01DX009 (ip), vehicle: Klucel (hydroxypropylcellulose) (HPC) 102 % of control | [6] 103 % of control | [7] 104 % of control

Cc1nc2[nH]cc(C)c2c(=O)[nH]1
inactive: [4] 103 % of control | [5] 97 % of control | dose: 240.0 mg/kg/injection, schedule: Q01DX005 (ip), vehicle: saline with Tween-80 105 % of control

C[C@]12C=CC(=O)C=C1CC[C@@H]1[C@@H]2[C@@H](O)C[C@@]2(C)[C@H]1CC[C@]2(O)C(=O)COC(=O)CCC1CCCC1
inactive: [8] 104 % of control | [9] 100 % of control | [10] 91 % of control

OCNC(=S)c1ccccc1
inactive: dose: 50.0 mg/kg/injection, schedule: Q01DX005 (ip), vehicle: saline with Tween-80 105 % of control | dose: 100.0 mg/kg/injection, schedule: Q01DX005 (ip), vehicle: saline with Tween-80 105 % of control

CN(C)c1nc(Cl)c2cc(Cl)ccc2n1
inactive: dose: 60.0 mg/kg/injection, schedule: Q01DX005 (ip), vehicle: Klucel (hydroxypropylcellulose) (HPC) 100 % of control | dose: 120.0 mg/kg/injection, schedule: Q01DX005 (ip), vehicle: Klucel (hydroxypropylcellulose) (HPC) 99 % of control

COCC1(C)CCCC2(C)C3=CC(=O)CCC3CCC12 (configuration not stated)
inactive: [8] 100 % of control | [9] 108 % of control | [10] 95 % of control

C[Si](Cl)(CCl)CCl
inactive: [1] 118 % of control | [2] 116 % of control | [3] 118 % of control

O=C(CN1CCN(CCO)CC1)N1c2ccccc2Sc2ccc(C(F)(F)F)cc21
inactive: dose: 100.0 mg/kg/injection, schedule: Q04DX002 (ip), vehicle: saline 101 % of control | dose: 200.0 mg/kg/injection, schedule: Q04DX002 (ip), vehicle: saline 90 % of control

NS(=O)(=O)c1cc([N+](=O)[O-])ccc1Cl
inactive: [1] 100 % of control | [2] 100 % of control | [3] 94 % of control

CC(=O)/C=C/c1ccc(Cl)c(Cl)c1
inactive: [1] 118 % of control | [2] 111 % of control | [3] 111 % of control
